# Measurements taken from US20080175926A1, “Process for treating storage reservoirs contaminated with mycotoxins” (priority 2006, published 2008).
# Key:
# Penicillium spp. = assay: Thermal fogging with eugenol of empty grain storage cells; Airtest trapping of Penicillium colonies on Petri dishes; settings: for Penicillium contamination (number colonies/Petri dish) After treatment: Airtest 100 l, 10 days after treatment
# Experimental: (§1) Six cells (noted ‘20’, ‘L’, ‘12’, ‘F’, ‘8’ and ‘I’) were studied. These are concrete cells with a conical bottom (bottom for completely emptying the cell and eliminating more readily the debris and dust before ensilaging the next harvest). The cells identified by a number have a capacity of 350 t, those identified by a letter have a capacity of 50 t. The level of contamination of the six cells was evaluated by trapping the contaminated spores or particles using an Airtest introduced into the cell via an access hatch located at the base of the cell.
# (§2) The Petri dishes 90 mm in diameter, placed in the Airtest and constituting the trap, contained a Malt Agar+Triton medium; the addition of triton modifies the development of the fungal colonies, which remain compact and are easy to count. The volume of air passing through the Airtest was set at 100 I, except for one cell in which we tested 4 different volumes of air (10 l, 20 l, 40 l, 100 l). For each mode, three repetitions (3Petri dishes) were carried out.
# (§3) Two types of trapping were carried out; atmospheric trapping and trapping on the […]. In fact, these walls have rough patches and can retain mould spores or infected particles. The Airtest was placed approximately 5 mm from the wall.
# (§4) […]
# (§5) The eugenol thermal fogging treatment was carried out on a platform on which the thermal fogging device was installed.
# (§6) 4 l and 20 l of eugenol, respectively, were subjected to thermal fogging at 230° C. (for approximately ¾ h) in cell L (≈50 m^3) and in cell 12 (≈350 m^3).
# Aspergillus spp. = assay: Thermal fogging with eugenol of empty grain storage cells; Airtest trapping of Aspergillus colonies on Petri dishes; settings: for Aspergillus contamination (number colonies/Petri dish) After treatment: Airtest 100 l, 10 days after treatment
# Experimental: as §1, §2, §3, §4, §5, §6
# [1] = thermal fogging of eugenol in the cells, atmospheric and wall contamination
smiles,measurement,setting,value
C=CCc1ccc(O)c(OC)c1 [eugenol],Penicillium contamination (number colonies/Petri dish) After treatment,"Penicillium spp.; cell 12 (wheat, ≈350 m^3), 20 l eugenol thermal fogging at 230° C., atmosphere trapping, before treatment 1240",400 number colonies/Petri dish
same,Penicillium contamination (number colonies/Petri dish) After treatment,"Penicillium spp.; cell 12 (wheat, ≈350 m^3), 20 l eugenol thermal fogging at 230° C., wall trapping, before treatment 1860",207 number colonies/Petri dish
same,Penicillium contamination (number colonies/Petri dish) After treatment,"Penicillium spp.; cell L (wheat, ≈50 m^3), 4 l eugenol thermal fogging at 230° C., atmosphere trapping, before treatment 2650",106 number colonies/Petri dish
same,Penicillium contamination (number colonies/Petri dish) After treatment,"Penicillium spp.; cell L (wheat, ≈50 m^3), 4 l eugenol thermal fogging at 230° C., wall trapping, before treatment 7500",85 number colonies/Petri dish
same,level of Penicillium spp. contamination after treatment (in words),"Penicillium spp.; cells L and 12, thermal fogging with eugenol at 230° C., atmospheric and wall contamination",clear decrease
same,effectiveness against Penicillium spp. present in the grain storage cells (in words),Penicillium spp.; [1],very effective
same,Aspergillus contamination (number colonies/Petri dish) After treatment,"Aspergillus spp.; cell 12 (wheat, ≈350 m^3), 20 l eugenol thermal fogging at 230° C., atmosphere trapping, before treatment 77",0 number colonies/Petri dish
same,Aspergillus contamination (number colonies/Petri dish) After treatment,"Aspergillus spp.; cell 12 (wheat, ≈350 m^3), 20 l eugenol thermal fogging at 230° C., wall trapping, before treatment 85",0 number colonies/Petri dish
same,Aspergillus spp. contamination after treatment (in words),"Aspergillus spp.; cell 12, 20 l eugenol thermal fogging at 230° C.",completely controlled
same,Aspergillus contamination (number colonies/Petri dish) After treatment,"Aspergillus spp.; cell L (wheat, ≈50 m^3), 4 l eugenol thermal fogging at 230° C., atmosphere trapping, before treatment 0",0 number colonies/Petri dish
same,Aspergillus contamination (number colonies/Petri dish) After treatment,"Aspergillus spp.; cell L (wheat, ≈50 m^3), 4 l eugenol thermal fogging at 230° C., wall trapping, before treatment 0",0 number colonies/Petri dish
same,effectiveness against Aspergillus spp. present in the grain storage cells (in words),Aspergillus spp.; [1],very effective
